Our source for the IC50 values is patent publication US12187742B2 (XRAD Therapeutics, Inc., priority 2018, dated 2025).

Counter-ions that a name gives are not always drawn. Bounds are passed on as bounds.

Chain of ATM (Q13315 whole entry): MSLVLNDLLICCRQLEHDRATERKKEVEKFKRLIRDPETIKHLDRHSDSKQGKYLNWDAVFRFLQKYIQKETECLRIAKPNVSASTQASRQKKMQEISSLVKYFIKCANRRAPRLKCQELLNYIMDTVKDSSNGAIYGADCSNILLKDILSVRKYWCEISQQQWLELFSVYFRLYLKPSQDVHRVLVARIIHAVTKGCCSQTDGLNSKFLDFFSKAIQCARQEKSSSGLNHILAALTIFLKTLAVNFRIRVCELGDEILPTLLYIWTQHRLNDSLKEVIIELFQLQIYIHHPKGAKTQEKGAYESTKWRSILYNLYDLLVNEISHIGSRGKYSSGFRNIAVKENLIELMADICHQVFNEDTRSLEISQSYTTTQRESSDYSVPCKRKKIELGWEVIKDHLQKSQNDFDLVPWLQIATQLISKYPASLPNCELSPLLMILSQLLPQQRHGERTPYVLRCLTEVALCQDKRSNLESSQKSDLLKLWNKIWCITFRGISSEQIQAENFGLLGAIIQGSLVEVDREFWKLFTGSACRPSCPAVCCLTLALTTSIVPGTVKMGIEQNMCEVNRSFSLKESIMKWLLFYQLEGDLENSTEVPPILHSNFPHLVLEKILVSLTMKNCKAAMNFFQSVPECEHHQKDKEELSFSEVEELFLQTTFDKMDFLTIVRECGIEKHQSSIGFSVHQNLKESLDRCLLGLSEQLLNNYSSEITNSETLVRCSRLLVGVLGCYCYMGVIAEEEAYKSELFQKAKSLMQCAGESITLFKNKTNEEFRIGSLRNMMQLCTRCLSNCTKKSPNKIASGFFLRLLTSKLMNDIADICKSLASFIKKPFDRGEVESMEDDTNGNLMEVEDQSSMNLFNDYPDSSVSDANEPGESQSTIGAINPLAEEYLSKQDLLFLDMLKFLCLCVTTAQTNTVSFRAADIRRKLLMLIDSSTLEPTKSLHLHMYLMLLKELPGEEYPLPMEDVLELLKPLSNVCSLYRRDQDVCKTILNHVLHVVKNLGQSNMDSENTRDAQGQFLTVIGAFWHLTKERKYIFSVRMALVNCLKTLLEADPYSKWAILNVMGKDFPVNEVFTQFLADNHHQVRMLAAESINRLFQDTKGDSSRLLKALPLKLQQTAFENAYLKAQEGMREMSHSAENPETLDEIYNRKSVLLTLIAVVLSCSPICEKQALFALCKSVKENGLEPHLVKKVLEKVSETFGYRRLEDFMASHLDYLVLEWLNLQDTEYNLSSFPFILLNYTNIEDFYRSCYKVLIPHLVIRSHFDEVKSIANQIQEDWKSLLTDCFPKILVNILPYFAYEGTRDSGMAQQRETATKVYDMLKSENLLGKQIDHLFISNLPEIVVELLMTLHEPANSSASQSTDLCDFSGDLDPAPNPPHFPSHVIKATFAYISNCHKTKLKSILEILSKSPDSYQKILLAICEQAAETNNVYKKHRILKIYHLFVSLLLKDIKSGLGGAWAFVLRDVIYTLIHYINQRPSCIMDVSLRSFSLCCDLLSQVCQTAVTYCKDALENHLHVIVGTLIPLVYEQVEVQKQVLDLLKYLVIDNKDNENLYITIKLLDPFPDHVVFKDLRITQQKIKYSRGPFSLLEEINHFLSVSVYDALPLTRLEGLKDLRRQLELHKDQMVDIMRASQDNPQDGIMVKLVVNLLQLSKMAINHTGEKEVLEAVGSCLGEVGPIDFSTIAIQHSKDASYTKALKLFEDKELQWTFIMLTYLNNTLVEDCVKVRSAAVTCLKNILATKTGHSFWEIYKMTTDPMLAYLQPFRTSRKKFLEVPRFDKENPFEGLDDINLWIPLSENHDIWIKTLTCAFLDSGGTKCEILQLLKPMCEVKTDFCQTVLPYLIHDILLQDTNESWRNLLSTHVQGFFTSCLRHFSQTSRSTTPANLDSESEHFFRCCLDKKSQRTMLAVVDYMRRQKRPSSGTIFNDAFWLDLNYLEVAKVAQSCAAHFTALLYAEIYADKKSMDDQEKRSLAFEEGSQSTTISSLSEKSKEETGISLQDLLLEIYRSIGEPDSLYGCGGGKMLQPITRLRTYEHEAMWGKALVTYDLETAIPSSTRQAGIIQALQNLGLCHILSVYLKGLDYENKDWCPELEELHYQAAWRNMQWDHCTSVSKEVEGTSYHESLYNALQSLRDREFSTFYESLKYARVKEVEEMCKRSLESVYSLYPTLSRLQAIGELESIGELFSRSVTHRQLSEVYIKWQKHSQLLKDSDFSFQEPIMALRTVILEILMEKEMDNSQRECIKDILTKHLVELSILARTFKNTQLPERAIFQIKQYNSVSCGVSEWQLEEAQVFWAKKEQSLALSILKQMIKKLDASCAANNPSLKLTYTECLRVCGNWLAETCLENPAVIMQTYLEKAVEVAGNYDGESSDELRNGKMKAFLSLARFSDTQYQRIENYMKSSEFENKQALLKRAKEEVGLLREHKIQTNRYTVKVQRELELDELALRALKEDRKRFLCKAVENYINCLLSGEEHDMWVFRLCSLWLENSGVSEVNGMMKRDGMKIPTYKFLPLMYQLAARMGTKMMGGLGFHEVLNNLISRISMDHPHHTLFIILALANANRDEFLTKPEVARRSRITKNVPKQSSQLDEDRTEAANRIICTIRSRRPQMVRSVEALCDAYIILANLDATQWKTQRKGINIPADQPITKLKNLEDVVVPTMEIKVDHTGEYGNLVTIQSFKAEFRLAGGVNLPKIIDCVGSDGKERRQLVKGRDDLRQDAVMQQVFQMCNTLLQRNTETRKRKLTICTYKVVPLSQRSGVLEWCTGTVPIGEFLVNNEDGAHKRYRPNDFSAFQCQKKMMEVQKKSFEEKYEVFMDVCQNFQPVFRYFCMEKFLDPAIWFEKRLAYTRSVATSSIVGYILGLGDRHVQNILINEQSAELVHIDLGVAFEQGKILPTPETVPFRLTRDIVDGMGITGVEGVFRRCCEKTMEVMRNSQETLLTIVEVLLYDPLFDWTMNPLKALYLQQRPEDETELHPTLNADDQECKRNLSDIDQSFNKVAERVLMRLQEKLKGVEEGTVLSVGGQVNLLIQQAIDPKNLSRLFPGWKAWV

One assay addresses ATM (Homo sapiens (Human), UniProt Q13315). Nature of the assay: ATM in Cell Western Assay (pKAP1 in etoposide-treated MCF-7 cells). Format: cell-based. To be noted: MCF-7 cells, etoposide 100 μM, 1 hr, pKAP1 readout. The essentials: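 Cells received compounds in a 10-dose, 3-fold series from a 1 μM final top concentration, then 100 μM etoposide, for 1 hr at 37° C. They were then fixed with paraformaldehyde and permeabilized with 0.1% Triton X-100. After immunostaining, plates were scanned on an infrared imager.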
For orientation: IC50 means the concentration that gives 50% inhibition. For `CN(CCCOc1ncc(-c2ccc3ncc4c(c3c2)C2(CCC2)C(=O)N4C)cc1NS(C)(=O)=O)CC(F)(F)F` [Example 231], the IC50 was 1 to 100 nM.

Turning to `CN(C)CCCOc1ncc(-c2ccc3ncc4c(c3c2)C2(CCC2)C(=O)N4C)cc1NS(=O)(=O)CCN1C(=O)c2ccccc2C1=O` [Example 261, N-(2-(3-(dimethylamino)propoxy)-5-(3′-methyl-2′-oxo-2′,3′-dihydrospiro[cyclobutane-1,1′-pyrrolo[2,3-c]quinolin]-8′-yl)pyridin-3-yl)-2-(1,3-dioxoisoindolin-2-yl)ethane-1-sulfonamide], the IC50 was 1 to 100 nM.

`CN(C)CCCOc1ncc(-c2ccc3ncc4c(c3c2)C2(CCC2)C(=O)N4C)cc1NS(=O)(=O)c1ccc(OC(F)(F)F)cc1` [Example 143, N-(2-(3-(Dimethylamino)propoxy)-5-(3′-methyl-2′-oxo-2′,3′-dihydrospiro[cyclobulane-1,1′-pyrrolo[2,3-c]quinolin]-8′-yl)pyridin-3-yl)-4-(trifluoromethoxy)benzenesulfonamide hydrochloride] gave an IC50 of 1 to 100 nM.

The compound `CN1C(=O)C2(CCC2)c2c1cnc1ccc(-c3cnc(CCCCN4CCCCC4)c(NS(C)(=O)=O)c3)cc21` [Example 269, N-(5-(3′-Methyl-2′-oxo-2′,3′-dihydrospiro[cyclobutane-1,1′-pyrrolo[2,3-c]quinolin]-8′-yl)-2-(4-(piperidin-1-yl)butyl)pyridin-3-yl)methanesulfonamide] came in with an IC50 of 1 to 100 nM.

As for `CN1CC(COc2ncc(-c3ccc4ncc5c(c4c3)C3(CC3)C(=O)N5C)cc2NS(=O)(=O)c2ccccc2)C1` [Example 110, N-(5-(3′-Methyl-2′-oxo-2′,3′-dihydrospiro[cyclopropane-1,1′-pyrrolo[2,3-c]quinolin]-8′-yl)-2-((1-methylazetidin-3-yl)methoxy)pyridin-3-yl)benzenesulfonamide], the half-inhibitory concentration (IC50) was greater than 100 nM.

As to `CN(C)CCCOc1ncc(-c2ccc3ncc4c(c3c2)N(C)C2(CC2)C(=O)N4C)cc1NS(=O)(=O)c1ccccc1` [Example 74, N-(5-(1′,4′-Dimethyl-3′-oxo-34′-dihydro-1′H-spiro[cyclopropane-1,2′-pyrazino[2,3-c]quinolin]-9′-yl)-2-(3-(dimethylamino)propoxy)pyridin-3-yl) benzenesulfonamide], the IC50 is greater than 100 nM.

Still in this assay, the particulars now being: pKAP1 in etoposide-treated MCF-7 cells.
With `CC(C)NCCOc1ncc(-c2cc3c(cc2F)ncc2c3[C@]3(C[C@@H](N4CCCC4)C3)C(=O)N2C)cc1NS(C)(=O)=O` [Example 468, trans-N-(5-(7′-Fluoro-3′-methyl-2′-oxo-3-(pyrrolidin-1-yl)-2′,3′-dihydrospiro[cyclobutane-1,1′-pyrrolo[2,3-c]quinolin]-8′-yl)-2-(2-(isopropylamino)ethoxy)pyridin-3-yl)methanesulfonamide], the IC50 lay within 1 to 100 nM.

Turning to `CC(C)NCCOc1ncc(-c2cc3c4c(cnc3cc2F)N(C)C(=O)C42CN(c3ncccn3)C2)cc1NS(C)(=O)=O` [Example 551, N-(5-(7′-Fluoro-3′-methyl-2′-oxo-1-(pyrimidin-2-yl)-2′,3′-dihydrospiro[azetidine-3,1′-pyrrolo[2,3-c]quinolin]-8′-y))-2-(2-(isopropylamino)ethoxy)pyridin-3-yl)methanesulfonamide hydrochloride], the half-maximal inhibitory concentration (IC50) is greater than 100 nM.

On to `CC(C)NCCOc1ncc(-c2cc3c(cc2F)ncc2c3[C@]3(C[C@@H](Nc4ccc(Cl)cc4)C3)C(=O)N2C)cc1NS(C)(=O)=O` [Example 462, trans-N-(5-(3-((4-Chlorophenyl)amino)-7′-fluoro-3′-methyl-2′-oxo-2′,3′-dihydrospiro[cyclobutane-1,1′-pyrrolo[2,3-c]quinolin]-8′-yl)-2-(2-(isopropylamino)ethoxy)pyridin-3-yl)methanesulfonamide], for which the IC50 was in the range of 1 to 100 nM.

As to `CC(C)NCCOc1ncc(-c2cc3c4c(cnc3cc2F)N(C)C(=O)C42CCC2)cc1NS(=O)(=O)CC#N` [Example 374, 1-Cyano-N′-(5-(7′-fluoro-3′-methyl-2′-oxo-2′,3′-dihydrospiro[cyclobutane-1,1′-pyrrolo[2,3-c]quinolin]-8′-yl)-2-(2-(isopropylamino)ethoxy)pyridin-3-yl) methanesulfonamide hydrochloride], the IC50 fell in the range of 1 to 100 nM.

With `CN(C)c1ncc(-c2cc3c4c(cnc3cc2F)N(C)C(=O)C42CCC2)cn1` [Example 364, 8′-(2-(Dimethylamino)pyrimidin-5-yl)-7′-fluoro-3′-methylspiro[cyclobutane-1,1′-pyrrolo[2,3-c]quinolin]-2′(3′-H)-one], the IC50 is greater than 100 nM.

On to `CC(C)NCCOc1ncc(-c2cc3c4c(cnc3cc2F)N(C)C(=O)C42CN(c3ccncc3)C2)cc1NS(C)(=O)=O` [Example 547, N-(5-(7′-Fluoro-3′-methyl-2′-oxo-1-(pyridin-4-yl)-2′,3′-dihydrospiro [azetidine-3,1′-pyrrolo[2,3-c]quinolin]-8′-yl)-2-(2-(isopropylamino)ethoxy)pyridin-3-yl)methanesulfonamide], for which the IC50 was greater than 100 nM.

Consider `CC(C)NCCOc1ncc(-c2cc3c(cc2F)ncc2c3[C@]3(C[C@@H](CN(C)C)C3)C(=O)N2C)cc1NS(C)(=O)=O` [Example 453, trans-N-(5-(3-((Dimethylamino)methyl)-7′-fluoro-3′-methyl-2′-oxo-2′,3′-dihydrospiro[cyclobutane-1,1′-pyrrolo[2,3-c]quinolin]-8′-yl)-2-(2-(isopropylamino)ethoxy)pyridin-3-yl)methanesulfonamide], for which the IC50 was 1 to 100 nM.

On to `CC(C)NCCOc1ncc(-c2cc3c4c(cnc3cc2F)N(C)C(=O)C42CCC2)cc1NS(=O)(=O)N1CC(C#N)C1` [Example 372, 3-Cyano-N-(5-(7′-fluoro-3′-methyl-2′-oxo-2′,3′-dihydrospiro[cyclobutane-1,1′-pyrrolo[2,3-c]quinolin]-8′-yl)-2-(2-(isopropylamino)ethoxy)pyridin-3-yl)azetidine-1-sulfonamide], for which the half-maximal inhibitory concentration (IC50) was greater than 100 nM.

Consider `CN1C(=O)C2(CCC2)c2c1cnc1ccc(-c3cnc(N4CC5CC(C4)N5C)c(NS(C)(=O)=O)c3)cc21` [Example 361, N-(5-(3′-Methyl-2′-oxo-2′,3′-dihydrospiro[cyclobutane-1,1′-pyrrolo[2,3-c]quinolin]-8′-yl)-2-(6-methyl-3,6-diazabicyclo[3.1.1]heptan-3-yl)pyridin-3-yl)methanesulfonamide formate], for which the IC50 was greater than 100 nM.

`COC(=O)N1CC2(C1)C(=O)N(C)c1cnc3cc(F)c(-c4cnc(OCCNC(C)C)c(NS(C)(=O)=O)c4)cc3c12` [Example 513, Methyl7′-fluoro-8′-(6-(2-(isopropylamino)ethoxy)-5-(methylsulfonamido)pyridin-3-yl)-3′-methyl-2′-oxo-2′,3′-dihydrospiro[azetidine-3,1′-pyrrolo[2,3-c]quinoline]-1-carboxylate] had an IC50 greater than 100 nM.

As for `CC(C)NCCOc1ncc(-c2cc3c(cc2F)ncc2c3[C@]3(C[C@@H](O)C3)C(=O)N2C)cc1NS(C)(=O)=O` [Example 382, trans-N-(5-(7′-Fluoro-3-hydroxy-3′-methyl-2′-oxo-2′,3′-dihydrospiro[cyclobutane-1,1′-pyrrolo[2,3-c]quinolin]-8′-yl)-2-(2-(isopropylamino)ethoxy)pyridin-3-yl)methanesulfonamide], the IC50 lay in the range of 1 to 100 nM.

The compound `CC(C)NCCOc1ncc(-c2cc3c4c(cnc3cc2F)N(C)C(=O)C42CN(C[C@H](O)CO)C2)cc1NS(C)(=O)=O` [Example 510, (S)-N-(5-(1-(2,3-Dihydroxypropyl)-7′-fluoro-3′-methyl-2′-oxo-2′,3′-dihydrospiro[azetidine-3,1′-pyrrolo[2,3-c]quinolin]-8′-yl)-2-(2-(isopropylamino)ethoxy)pyridin-3-yl)methanesulfonamide] came in with a 50% inhibitory concentration (IC50) greater than 100 nM.

Take `CNS(=O)(=O)Nc1cc(-c2cc3c4c(cnc3cc2F)N(C)C(=O)C42CCC2)cnc1N1CC(N(C)C)C1` [Example 340, 8′-{6-[3-(Dimethylamino)azetidin-1-yl]-5-[(methylsulfamoyl)amino]pyridin-3-yl}-7′-fluoro-3′-methyl-2′,3′-dihydrospiro[cyclobutane-1,1′-pyrrolo[2,3-c]quinoline]-2′-one]: the concentration for half-maximal inhibition (IC50) lay in the range of 1 to 100 nM.

On to `CN1C(=O)C2(CCC2)c2c1cnc1ccc(-c3cnc(N4CC5CC(C4)N5C(=O)OC(C)(C)C)c(NS(C)(=O)=O)c3)cc21` [Example 359, tert-Butyl 3-(5-(3′-methyl-2′-oxo-2′,3′-dihydrospiro [cyclobutane-1,1′-pyrrolo[2,3-c]quinolin]-8′-yl)-3-(methylsulfonamido)pyridin-2-yl)-3,6-diazabicydo[3.1.1] heptane-6-carboxylate], for which the IC50 is greater than 100 nM.

Compound `CC(C)NCCOc1ncc(-c2cc3c(cc2F)ncc2c3[C@]3(C[C@H](c4cc[nH]c(=O)c4)C3)C(=O)N2C)cc1NS(C)(=O)=O` [Example 444, cis-N-(5-(7′-fluoro-3′-methyl-2′-oxo-3-(2-oxo-1,2-dihydropyridin-4-yl)-2,3′-dihydrospiro[cyclobulane-1,1′-pyrrolo[2,3-c]quinolin]-8′-yl)-2-(2-(isopropylamino)ethoxy)pyridin-3-yl)methanesulfonamide] showed an IC50 greater than 100 nM.

On to `CC(C)NCCOc1ncc(-c2cc3c4c(cnc3cc2F)N(C)C(=O)C42CC3(CCNCC3)C2)cc1NS(C)(=O)=O` [Example 458, N-(5-(7′--Fluoro-3″-methyl-2″-oxo-2″,3″-dihydrodispiro [piperidine-4,1′-cyclobutane-31″-pyrrolo[2,3-c]quinolin]-8″-yl)-2-(2-(isopropylamino)ethoxy)pyridin-3-yl) methanesulfonamide], for which the IC50 was greater than 100 nM.

Turning to `CC(C)NCCOc1ncc(-c2cc3c4c(cnc3cc2F)N(C)C(=O)C42CN(C(=O)OC(C)C)C2)cc1NS(C)(=O)=O` [Example 514, Isopropyl 7′-fluoro-8′-(6-(2-(isopropylamino)ethoxy)-5-(methylsulfonamido)pyridin-3-yl)-3′-methyl-2′-oxo-2′,3′-dihydrospiro [azetidine-3,1′-pyrrolo[2,3-c]quinoline]-1-carboxylate], the IC50 was in the range of 1 to 100 nM.
